In paper PMC10740580, “Benzothiazole-Phthalimide Hybrids as Anti-Breast Cancer and Antimicrobial Agents” (Antibiotics, 2023):
Converted amounts (≈) assume the structure as drawn.

Key:
MCF-10A cells = experiment: MTT cell viability assay, nonmalignant MCF-10A; type: cell-based; conditions: Homo sapiens, 72 h exposure, nonmalignant breast epithelial cells, mean ± SD, read-out: IC50 MCF10-A
Method: (§1) The anticancer activity of the studied compounds (3a–h) was explored with regards to two human breast cancer cell lines, namely the estrogen receptor positive (ER+) MCF-7 cells and the triple negative MDA-MB-231 cells (ER-, PR-, and HER-2/Neu-). Cells were continuously exposed to the test substances for 72 h, after which their viability was assessed by means of the MTT assay. Table 2 lists the determined IC50 values for the investigated substances and the reference drug, thalidomide. […] Additionally, the same test for all the compounds has been performed on nonmalignant breast epithelial cells (MCF-10A) to ascertain their potential cytotoxicity.
(§2) The four cell lines used in this work (MCF-7, MDA-MB-231, MCF-10A, and 3T3-L1) were obtained from the American Type Culture Collection (ATCC, Manassas, VA, USA). All cell lines were maintained at 37 °C in a humidified atmosphere of 95% air and 5% CO2 and periodically screened for contamination. MCF-7, human breast cancer cells estrogen receptor (ER)-positive, and human breast cancer triple negative MDA-MB231 were grown in DMEM-F12 medium containing 2 mmol/L L-glutamine, 1 mg/mL penicillin–streptomycin, and 5% newborn calf serum (NCS) or 5% fetal bovine serum (FBS), respectively. MCF-10A human mammary epithelial cells were cultured in DMEM/F12 medium, supplemented with 5% horse serum (HS) (Eurobio, Les Ullis, Cedex, France), 100 U/mL penicillin/streptomycin, […], 20 ng/mL hEGF (human epidermal growth factor), […], and […] (Sigma-Aldrich, Milano, Italy). BALB/3T3 murine fibroblast cells were cultured in DMEM high glucose supplemented with 10% bovine calf serum (BCS), 1% L-glutamine, and 100 U/mL penicillin/streptomycin.
(§3) Cell viability was evaluated by means of the 3-(4,5-dimethylthiazol-2-y1)-2,5-diphenyltetra zolium bromide (MTT, Sigma-Aldrich, Milan, Italy) assay. On 48-well plates, cells were seeded, and they were cultured in complete medium. Before being treated, cells were starved in serum-free medium for 24 h to allow cell cycle synchronization. Subsequently, cells were exposed to increasing doses of each compound for 72 h in phenol-red-free media supplemented with 1% serum before fresh MTT was added to each well (final concentration: 0.5 mg/mL). Cells were lysed with DMSO after 2 h of incubation at 37 °C, and optical density at 570 nm was then determined with a microplate reader. Using GraphPad Prism 9 software (GraphPad Inc., San Diego, CA, USA), the mean absorbance for each sample was expressed as a percentage over the control and plotted vs. drug concentrations to establish the IC50 values. The given standard deviations (SDs) are indicative of three separate tests carried out in triplicate.

MCF-7 cells = experiment: MTT cell viability assay, MCF-7; type: cell-based, human; conditions: mean ± SD; for IC50: Homo sapiens, MCF7, 72 h exposure
Method: as §1, §2, §3

Candida albicans 90028 = experiment: Antifungal microdilution, C. albicans ATCC 90028; type: cell-based; conditions: microdilution CLSI M27-A3, 48 h, 37 °C
Method: In accordance with CLSI guidelines, compounds 3a–h were tested against a variety of fungal strains (Candida albicans 10231, Candida albicans 90028, Candida glabrata 15126, and Candida parapsilosis 22019) belonging to the ATCC collection. Amphotericin B was utilized as a reference drug. A similar trend of results, or even better than that obtained against bacteria, was assessed against fungal strains. […] Also, in this case, compound 3h emerged as the best of the series, with MICs of 16 μg/mL against Candida glabrata and Candida parapsilosis strains and 32 μg/mL against Candida albicans strains.
A microdilution technique described by the Clinical and Laboratory Standards Institute (CLSI, M27-A3) was used to assess the antifungal activity. The following fungal strains, belonging to the ATCC collection and available as freeze-dried discs, were used: C. albicans ATCC 10231, C. albicans ATCC 90028, C. glabrata ATCC 15126, and C. parapsilosis ATCC 22019. Stock solutions were prepared and preserved with purity as previously described for the antibacterial studies. Each yeast strain’s pre-cultures were made in Sabouraud broth (SAB) and allowed to grow until they stopped at 37 °C. By using a spectrophotometric technique (530 nm, range 0.12–0.15), the turbidity of the yeast stock suspension was calibrated to 0.5 McFarland Standard. Next, the standardized suspension was diluted first at 1:50 with SAB and then at 1:20 in the same medium to have […]. A total of 100 µL of inoculum was seeded into each well. As a control for growth, several wells containing only inoculated broth were prepared. The plates were incubated for 48 h at 37 °C, and the MIC values were calculated as the final well with no fungal growth. […] MIC values were observed based on the absence of fungal growth in the final well. The MICs were calculated by conducting the antifungal test three times in duplicate. As a control, amphotericin B was used.

Row | SMILES | IC50 (MCF-7 cells) [µM] | MIC (Candida albicans 90028) [µg/mL] | IC50 MCF-7 (MCF-7 cells; 72 h exposure) | IC50 (MCF-10A cells) [µM]
1 | O=C1c2ccccc2C(=O)N1c1nc2ccccc2s1 [3a, 2-(1,3-benzothiazol-2-yl)-1H-isoindole-1,3(2H)-dione] | 165.5 ± 1.1 | 64 (≈ 228 µM) |  | > 500
2 | COc1cc2nc(N3C(=O)c4ccccc4C3=O)sc2cc1OC [3f, 2-[5,6-Dimethoxy-1,3-benzothiazol-2-yl]-1H-isoindole-1,3(2H)-dione] | 93 ± 1.4 | 64 (≈ 188 µM) |  | > 500
3 | O=C1c2ccccc2C(=O)N1c1nc2ccc(O)cc2s1 [3g, 2-[6-Hydroxy-1,3-benzothiazol-2-yl]-1H-isoindole-1,3(2H)-dione] | 71.2 ± 0.7 | 64 (≈ 216 µM) |  | > 500
4 | O=C1c2ccccc2C(=O)N1c1nc2ccc(Oc3ccccc3)cc2s1 [3h, 2-[6-Phenoxy-1,3-benzothiazol-2-yl]-1H-isoindole-1,3(2H)-dione] | 26.2 ± 0.9 | 32 (≈ 85.9 µM) |  | 193.9 ± 1

Further lines, with some results ahead:

Row | IC50 (MCF-7 cells) [µM] | MIC (Candida albicans 90028) [µg/mL] | IC50 MCF-7 (MCF-7 cells; 72 h exposure) | SMILES | IC50 (MCF-10A cells) [µM]
5 | 91.5 ± 0.6 | 64 (≈ 215 µM) |  | O=C1c2ccccc2C(=O)N1c1nc2ccc(F)cc2s1 [3b, 2-(6-Fluoro-1,3-benzothiazol-2-yl)-1H-isoindole-1,3(2H)-dione] | 151.9 ± 1.1
6 | > 500 | 64 (≈ 184 µM) | did not possess any activity | O=C1c2ccccc2C(=O)N1c1nc2ccc(C(F)(F)F)cc2s1 [3c, 2-[6-Trifluoromethyl-1,3-benzothiazol-2-yl]-1H-isoindole-1,3(2H)-dione] | > 500
7 | 66 ± 1.2 | > 512 |  | Cc1ccc2nc(N3C(=O)c4ccccc4C3=O)sc2c1 [3d, 2-[6-Methyl-1,3-benzothiazol-2-yl]-1H-isoindole-1,3(2H)-dione] | > 500
8 | 223.1 ± 0.9 | 64 (≈ 206 µM) |  | COc1ccc2nc(N3C(=O)c4ccccc4C3=O)sc2c1 [3e, 2-[6-Methoxy-1,3-benzothiazol-2-yl]-1H-isoindole-1,3(2H)-dione] | > 500
